This note sets out measurements from ChEMBL document CHEMBL1201862, “PubChem BioAssay data set” (2004).

The structures appear in SMILES notation. Calls of active or inactive are those of the source.

A short description of test [1]: Luminescence Cell-Based Dose Retest to Confirm Inhibitors of Cancer Stem Cells. [Related pubchem assays (depositor defined):AID2717, AID2721]. It counts as functional. The settings on record: Homo sapiens.
Test [2] deals with Streptococcus sp. 'group A'. In words: growth inhibition of control SK(-) GAS strain, dose response, counter-screen for streptokinase expression inhibitor project, luminescence, kanamycin, BacTiterGlo, confirmation (AID 1900). The test is classed as functional, organism-based. On the technique in general: A counterscreen serves to expose hits that act by an unwanted route or on another target.

The target in test [3] is T1, Estrogen receptor (Homo sapiens, UniProt P03372).
T1 sequence (P03372 whole entry): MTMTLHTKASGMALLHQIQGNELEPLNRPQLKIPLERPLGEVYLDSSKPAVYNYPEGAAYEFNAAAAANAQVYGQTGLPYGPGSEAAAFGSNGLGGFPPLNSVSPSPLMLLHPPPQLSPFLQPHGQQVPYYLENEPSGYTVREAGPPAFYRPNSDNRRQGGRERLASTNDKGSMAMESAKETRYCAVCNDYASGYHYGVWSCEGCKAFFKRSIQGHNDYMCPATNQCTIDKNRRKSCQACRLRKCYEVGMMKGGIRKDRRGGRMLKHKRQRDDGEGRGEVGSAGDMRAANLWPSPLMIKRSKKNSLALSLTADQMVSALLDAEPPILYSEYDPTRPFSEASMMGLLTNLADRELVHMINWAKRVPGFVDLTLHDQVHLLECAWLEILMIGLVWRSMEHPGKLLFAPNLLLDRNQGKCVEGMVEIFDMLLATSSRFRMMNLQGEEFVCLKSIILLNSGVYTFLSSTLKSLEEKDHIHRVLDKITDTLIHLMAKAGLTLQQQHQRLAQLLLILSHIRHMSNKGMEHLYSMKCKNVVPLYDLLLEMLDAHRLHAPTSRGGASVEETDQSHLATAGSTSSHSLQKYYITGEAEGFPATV

Test [4] deals with T2, Estrogen receptor beta (Homo sapiens, UniProt Q92731).
The subject of test [5] is Streptococcus. In words: Group A Streptococcus viability loss, dose response, counter-screen for streptokinase expression inhibitor project, luminescence, BacTiterGlo (AID 1915).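 Note: potency for reduction of bacterial viability or growth.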 It counts as functional, organism-based.
Test [6] concerns the target Nonstructural protein 1 (Influenza A virus, UniProt Q194T2). It counts as functional, Influenza A virus (A/California/07/2009(H1N1)).
Test [7] has as its system INS1. The test can be described thus: beta cell apoptosis inhibitors, cytokine rescue, dose response, luminescence, retest (AID 449756).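 Note: cell death triggered by IL-1 beta plus TNF-alpha plus IFN-gamma mixture; protective hits raise ATP signal compared with cytokine alone wells.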 The test is classed as functional, cell-based. Conditions: Rattus norvegicus.
Test [8] deals with T3, Streptokinase A (Streptococcus pyogenes serotype M1, UniProt P10520).
T3 sequence (P10520 whole entry): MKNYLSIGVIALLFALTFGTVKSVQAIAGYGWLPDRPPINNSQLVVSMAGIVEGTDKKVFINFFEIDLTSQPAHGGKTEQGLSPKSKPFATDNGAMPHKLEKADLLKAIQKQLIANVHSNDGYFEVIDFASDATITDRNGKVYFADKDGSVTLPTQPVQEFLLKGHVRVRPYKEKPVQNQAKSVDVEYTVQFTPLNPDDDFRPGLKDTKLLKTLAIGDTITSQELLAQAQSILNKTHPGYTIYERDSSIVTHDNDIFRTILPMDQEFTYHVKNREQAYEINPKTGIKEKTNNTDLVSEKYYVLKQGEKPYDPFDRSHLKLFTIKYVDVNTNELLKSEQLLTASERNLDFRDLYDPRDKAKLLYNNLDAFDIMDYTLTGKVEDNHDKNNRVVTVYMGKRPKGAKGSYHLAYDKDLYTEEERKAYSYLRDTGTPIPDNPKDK
The test can be described thus: S. pyogenes streptokinase expression inhibitors, potency, dose response, plasminogen activation absorbance, OD405 (AID 1914).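 Note: secreted streptokinase activity via plasminogen activation per viability signal from cell pellet.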 It counts as functional, Streptococcus pyogenes M1 GAS.

In test [9] the target is T2, Estrogen receptor beta. In words: ERβ–SRC-3 coactivator interaction inhibitors, confirmation, orthogonal assay, biochemical, ELISA, streptavidin-HRP readout (AID 1060). For orientation: In an ELISA, binding on a coated surface is turned into a signal by an enzyme label.
Test [10] has as its target Peroxisome proliferator-activated receptor gamma/Nuclear receptor coactivator 1 (Homo sapiens, UniProt P37231). It counts as functional.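 Note: agonist potency as compounds enhance coactivator SRC-1 recruitment to PPARgamma.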
Test [11] has as its target Peroxisome proliferator-activated receptor gamma/Nuclear receptor coactivator 3 (Homo sapiens, UniProt P37231). The test is classed as functional.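 Note: agonist potency for raising coactivator recruitment to the receptor.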
Test [12] deals with Peroxisome proliferator-activated receptor gamma/Nuclear receptor coactivator 2 (Homo sapiens, UniProt P37231). It counts as functional.
The target in test [13] is T4, NADPH oxidase 1 (Homo sapiens, UniProt Q9Y5S8).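 Note: Cell-based assay with luminescence read-out, IC50 derived from inhibitor dose-response curves; intracellular ROS from endogenous NOX1 in intact HT29 colon cancer cells; potency of inhibitors that lower the ROS luminescence signal.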
T4 sequence (Q9Y5S8 whole entry): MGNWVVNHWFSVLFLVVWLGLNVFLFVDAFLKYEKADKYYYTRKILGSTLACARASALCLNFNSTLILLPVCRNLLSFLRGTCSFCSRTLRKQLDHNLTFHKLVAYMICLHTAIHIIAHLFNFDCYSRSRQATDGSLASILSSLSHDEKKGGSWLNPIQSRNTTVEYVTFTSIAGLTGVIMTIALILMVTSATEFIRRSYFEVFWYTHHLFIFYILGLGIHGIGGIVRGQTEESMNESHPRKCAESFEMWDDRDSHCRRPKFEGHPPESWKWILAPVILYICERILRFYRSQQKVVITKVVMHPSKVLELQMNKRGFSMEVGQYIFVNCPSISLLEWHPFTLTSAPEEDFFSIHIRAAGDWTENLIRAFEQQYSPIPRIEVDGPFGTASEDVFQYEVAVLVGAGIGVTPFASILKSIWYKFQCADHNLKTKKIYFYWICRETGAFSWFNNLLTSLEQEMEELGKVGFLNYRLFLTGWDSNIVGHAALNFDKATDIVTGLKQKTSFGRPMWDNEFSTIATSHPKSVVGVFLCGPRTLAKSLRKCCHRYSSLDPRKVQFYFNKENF
It counts as functional, cell-based.

Test [14] has as its system HEK293. The test can be described thus: inhibitors of LMP1-driven NF-kB reporter, dose response, cell-based, HEK293, luciferase, cherry-pick (AID 588343). The test is classed as functional. Conditions: Homo sapiens.
Test [15] is described as follows: cytotoxicity in KRAS-transformed pancreatic duct cells, primary screen, cell-based, fluorescence, HTS (AID 431).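 Note: cell line used: HPDE-C7K.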 The test is classed as functional. The settings on record: Homo sapiens.
In test [16] the target is T5, Heat shock factor protein 1 (Mus musculus, UniProt P38532).
T5 sequence (P38532 whole entry): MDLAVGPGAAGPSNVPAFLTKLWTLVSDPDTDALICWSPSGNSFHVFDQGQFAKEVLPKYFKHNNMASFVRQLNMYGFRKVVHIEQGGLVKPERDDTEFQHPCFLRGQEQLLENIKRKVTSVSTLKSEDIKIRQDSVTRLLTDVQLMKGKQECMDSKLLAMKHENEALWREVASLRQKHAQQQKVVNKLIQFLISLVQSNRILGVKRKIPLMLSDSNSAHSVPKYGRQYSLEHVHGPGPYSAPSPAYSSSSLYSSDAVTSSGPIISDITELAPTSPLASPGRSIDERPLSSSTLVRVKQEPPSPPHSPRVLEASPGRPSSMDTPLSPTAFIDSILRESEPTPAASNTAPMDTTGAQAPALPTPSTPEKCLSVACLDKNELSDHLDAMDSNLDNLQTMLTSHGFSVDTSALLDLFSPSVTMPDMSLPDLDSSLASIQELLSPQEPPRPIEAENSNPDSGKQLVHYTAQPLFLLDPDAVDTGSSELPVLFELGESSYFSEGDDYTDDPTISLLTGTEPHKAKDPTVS
In words: inhibition of MG132-induced HSE-luciferase signal, confirmation, cell-based, NIH3T3, luminescence, dose retest (AID 2382).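 Note: NIH3T3 fibroblasts with HSF1-driven luciferase reporter stressed by proteasome inhibitor MG132; luminescence from HSF1-driven luciferase expression after 8 hours of MG132 stress.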 The test is classed as functional.

The nature of test [17]: cytotoxicity in HPDE-C7 cells, cell-based, fluorescence, HTS (AID 430). Conditions: Homo sapiens. The test is classed as functional.
Test [18] has as its target T6, Corticotropin-releasing factor receptor 2/Corticotropin-releasing factor-binding protein (Homo sapiens, UniProt P24387+Q13324).
T6 sequence (Q13324 whole entry): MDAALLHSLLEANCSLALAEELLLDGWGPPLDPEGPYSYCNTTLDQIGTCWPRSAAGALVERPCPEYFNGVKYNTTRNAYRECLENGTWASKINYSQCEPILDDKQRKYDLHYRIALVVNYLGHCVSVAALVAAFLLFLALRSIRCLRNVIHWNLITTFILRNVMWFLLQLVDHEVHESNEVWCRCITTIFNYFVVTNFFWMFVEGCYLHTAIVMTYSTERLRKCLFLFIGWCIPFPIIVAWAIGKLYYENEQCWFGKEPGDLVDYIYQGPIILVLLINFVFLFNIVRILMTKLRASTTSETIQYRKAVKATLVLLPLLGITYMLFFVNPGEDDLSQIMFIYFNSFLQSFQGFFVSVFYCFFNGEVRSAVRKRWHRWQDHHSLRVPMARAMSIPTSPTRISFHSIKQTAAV
T6 sequence (P24387 whole entry): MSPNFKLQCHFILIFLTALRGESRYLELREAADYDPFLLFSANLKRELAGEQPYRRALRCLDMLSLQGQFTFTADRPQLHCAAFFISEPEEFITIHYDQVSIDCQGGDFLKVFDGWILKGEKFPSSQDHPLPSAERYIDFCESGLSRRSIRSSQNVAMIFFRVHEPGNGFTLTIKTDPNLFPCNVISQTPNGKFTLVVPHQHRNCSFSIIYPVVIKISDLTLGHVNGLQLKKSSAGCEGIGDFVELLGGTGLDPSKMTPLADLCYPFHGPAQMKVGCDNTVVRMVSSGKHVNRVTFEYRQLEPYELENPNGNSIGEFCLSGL
The test can be described thus: Dose Response confirmation of uHTS hits for small molecule antagonists of the CRF-binding protein and CRF-R2 receptor complex. The test is classed as functional. Conditions: read-out: IC50_Mean.

The target in test [19] is T6, Corticotropin-releasing factor receptor 2/Corticotropin-releasing factor-binding protein. The test can be described thus: activators of CRF receptor 2 with binding protein – uHTS hits, confirmation (AID 602473). It counts as functional. The settings on record: read-out: EC50_Mean.
A short description of test [20]: HEp-2 cell cytotoxicity, dose response, cytotoxicity control for RSV inhibitor project, HTS (AID 2410). It counts as functional. Conditions: human respiratory syncytial virus.
The nature of test [21]: CRF-BP/CRF-R2 complex antagonists, dose response, cell-based, uHTS hits, 384-well (AID 651639). It counts as functional, Homo sapiens. Conditions: read-out: IC50_Mean.
A short description of test [22]: cells.
Test [23] addresses T7, Rac GTPase-activating protein 1 (Homo sapiens, UniProt Q9H0H5).
T7 sequence (Q9H0H5 whole entry): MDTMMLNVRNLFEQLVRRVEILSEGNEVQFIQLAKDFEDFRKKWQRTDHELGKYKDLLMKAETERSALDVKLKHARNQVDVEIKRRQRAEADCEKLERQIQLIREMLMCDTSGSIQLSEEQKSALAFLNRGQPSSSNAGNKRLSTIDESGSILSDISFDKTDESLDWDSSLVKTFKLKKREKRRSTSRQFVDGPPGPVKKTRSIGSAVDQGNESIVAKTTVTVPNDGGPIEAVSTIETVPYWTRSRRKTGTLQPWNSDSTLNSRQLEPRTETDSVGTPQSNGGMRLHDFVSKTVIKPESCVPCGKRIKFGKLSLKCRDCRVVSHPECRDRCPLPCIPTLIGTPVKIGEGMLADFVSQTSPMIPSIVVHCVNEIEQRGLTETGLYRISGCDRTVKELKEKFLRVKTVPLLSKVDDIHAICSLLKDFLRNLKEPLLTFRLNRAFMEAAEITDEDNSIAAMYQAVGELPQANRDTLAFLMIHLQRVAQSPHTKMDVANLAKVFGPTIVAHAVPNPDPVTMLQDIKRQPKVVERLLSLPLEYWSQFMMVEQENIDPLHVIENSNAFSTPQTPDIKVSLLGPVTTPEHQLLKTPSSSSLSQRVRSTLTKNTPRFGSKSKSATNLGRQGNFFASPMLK
In words: MgcRacGAP GTPase-activating activity inhibitors, confirmation, biochemical, ADP Hunter fluorescence, primary and confirmatory (AID 624330). It counts as functional.

T2 sequence (Q92731 whole entry): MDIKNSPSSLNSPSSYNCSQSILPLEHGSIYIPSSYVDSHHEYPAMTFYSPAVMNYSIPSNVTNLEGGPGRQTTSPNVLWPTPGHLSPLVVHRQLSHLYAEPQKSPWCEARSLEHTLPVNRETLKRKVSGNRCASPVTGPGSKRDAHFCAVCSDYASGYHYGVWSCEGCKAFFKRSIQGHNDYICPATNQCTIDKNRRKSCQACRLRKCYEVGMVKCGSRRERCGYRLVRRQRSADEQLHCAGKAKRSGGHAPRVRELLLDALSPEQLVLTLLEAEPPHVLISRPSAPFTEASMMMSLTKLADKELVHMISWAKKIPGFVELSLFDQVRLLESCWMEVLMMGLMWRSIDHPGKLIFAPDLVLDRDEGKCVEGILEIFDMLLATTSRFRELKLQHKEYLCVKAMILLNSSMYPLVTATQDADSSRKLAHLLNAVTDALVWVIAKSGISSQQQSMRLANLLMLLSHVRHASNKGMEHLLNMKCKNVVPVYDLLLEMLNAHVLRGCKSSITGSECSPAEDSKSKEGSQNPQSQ
Sequence of Peroxisome proliferator-activated receptor gamma/Nuclear receptor coactivator 2 (P37231 whole entry): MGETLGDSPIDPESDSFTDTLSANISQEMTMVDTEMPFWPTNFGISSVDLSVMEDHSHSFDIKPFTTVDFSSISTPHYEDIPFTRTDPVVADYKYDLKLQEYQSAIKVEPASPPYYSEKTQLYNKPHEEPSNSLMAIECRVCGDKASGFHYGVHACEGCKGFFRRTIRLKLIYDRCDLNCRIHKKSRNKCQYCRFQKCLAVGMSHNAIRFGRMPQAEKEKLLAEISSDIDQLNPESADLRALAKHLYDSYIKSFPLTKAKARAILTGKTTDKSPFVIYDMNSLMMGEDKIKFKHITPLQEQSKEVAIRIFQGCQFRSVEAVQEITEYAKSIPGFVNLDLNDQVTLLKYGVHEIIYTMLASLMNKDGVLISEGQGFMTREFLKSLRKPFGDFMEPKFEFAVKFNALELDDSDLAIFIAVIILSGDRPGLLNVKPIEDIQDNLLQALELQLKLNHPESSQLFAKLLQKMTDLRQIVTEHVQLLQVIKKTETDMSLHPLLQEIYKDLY
Sequence of Peroxisome proliferator-activated receptor gamma/Nuclear receptor coactivator 2 (Q15596 whole entry, further chain): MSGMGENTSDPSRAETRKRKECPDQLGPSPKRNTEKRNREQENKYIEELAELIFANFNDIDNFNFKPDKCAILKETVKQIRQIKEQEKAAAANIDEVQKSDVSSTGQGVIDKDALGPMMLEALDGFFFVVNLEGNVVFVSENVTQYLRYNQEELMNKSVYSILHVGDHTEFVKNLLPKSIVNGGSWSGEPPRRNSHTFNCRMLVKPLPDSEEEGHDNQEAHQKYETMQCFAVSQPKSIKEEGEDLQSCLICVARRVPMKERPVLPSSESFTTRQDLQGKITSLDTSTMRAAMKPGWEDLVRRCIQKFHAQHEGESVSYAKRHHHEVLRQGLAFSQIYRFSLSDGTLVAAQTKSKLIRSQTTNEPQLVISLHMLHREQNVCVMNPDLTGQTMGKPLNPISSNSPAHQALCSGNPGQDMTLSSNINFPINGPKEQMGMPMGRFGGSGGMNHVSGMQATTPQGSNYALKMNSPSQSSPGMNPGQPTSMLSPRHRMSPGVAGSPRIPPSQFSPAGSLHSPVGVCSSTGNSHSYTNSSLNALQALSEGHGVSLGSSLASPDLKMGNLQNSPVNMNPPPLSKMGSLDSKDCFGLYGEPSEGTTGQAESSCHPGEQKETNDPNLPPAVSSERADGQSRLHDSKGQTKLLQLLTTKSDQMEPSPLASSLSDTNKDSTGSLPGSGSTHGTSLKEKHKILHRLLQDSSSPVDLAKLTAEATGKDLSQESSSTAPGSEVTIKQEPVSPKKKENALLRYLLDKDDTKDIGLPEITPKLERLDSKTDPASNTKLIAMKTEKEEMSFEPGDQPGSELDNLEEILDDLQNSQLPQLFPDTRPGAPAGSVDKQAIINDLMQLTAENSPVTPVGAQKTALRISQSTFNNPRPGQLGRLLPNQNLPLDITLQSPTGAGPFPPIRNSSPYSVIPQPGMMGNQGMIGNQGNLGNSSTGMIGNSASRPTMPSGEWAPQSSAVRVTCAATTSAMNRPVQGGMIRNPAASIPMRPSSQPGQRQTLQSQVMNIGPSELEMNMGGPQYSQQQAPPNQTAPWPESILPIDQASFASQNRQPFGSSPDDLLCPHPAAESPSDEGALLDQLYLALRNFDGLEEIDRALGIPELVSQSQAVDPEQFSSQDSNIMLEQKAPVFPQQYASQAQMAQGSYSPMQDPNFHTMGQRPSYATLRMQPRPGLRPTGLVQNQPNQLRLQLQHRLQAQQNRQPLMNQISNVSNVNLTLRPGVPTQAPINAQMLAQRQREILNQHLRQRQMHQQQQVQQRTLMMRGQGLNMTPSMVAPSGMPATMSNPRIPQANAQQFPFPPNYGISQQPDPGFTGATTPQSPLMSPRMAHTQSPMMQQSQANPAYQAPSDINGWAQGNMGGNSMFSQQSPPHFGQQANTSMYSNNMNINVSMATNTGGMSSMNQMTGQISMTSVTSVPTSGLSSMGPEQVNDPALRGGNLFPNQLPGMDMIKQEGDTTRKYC
Sequence of Peroxisome proliferator-activated receptor gamma/Nuclear receptor coactivator 3 (P37231 whole entry): as the sequence (P37231 whole entry) above
Sequence of Peroxisome proliferator-activated receptor gamma/Nuclear receptor coactivator 3 (Q9Y6Q9 whole entry, further chain): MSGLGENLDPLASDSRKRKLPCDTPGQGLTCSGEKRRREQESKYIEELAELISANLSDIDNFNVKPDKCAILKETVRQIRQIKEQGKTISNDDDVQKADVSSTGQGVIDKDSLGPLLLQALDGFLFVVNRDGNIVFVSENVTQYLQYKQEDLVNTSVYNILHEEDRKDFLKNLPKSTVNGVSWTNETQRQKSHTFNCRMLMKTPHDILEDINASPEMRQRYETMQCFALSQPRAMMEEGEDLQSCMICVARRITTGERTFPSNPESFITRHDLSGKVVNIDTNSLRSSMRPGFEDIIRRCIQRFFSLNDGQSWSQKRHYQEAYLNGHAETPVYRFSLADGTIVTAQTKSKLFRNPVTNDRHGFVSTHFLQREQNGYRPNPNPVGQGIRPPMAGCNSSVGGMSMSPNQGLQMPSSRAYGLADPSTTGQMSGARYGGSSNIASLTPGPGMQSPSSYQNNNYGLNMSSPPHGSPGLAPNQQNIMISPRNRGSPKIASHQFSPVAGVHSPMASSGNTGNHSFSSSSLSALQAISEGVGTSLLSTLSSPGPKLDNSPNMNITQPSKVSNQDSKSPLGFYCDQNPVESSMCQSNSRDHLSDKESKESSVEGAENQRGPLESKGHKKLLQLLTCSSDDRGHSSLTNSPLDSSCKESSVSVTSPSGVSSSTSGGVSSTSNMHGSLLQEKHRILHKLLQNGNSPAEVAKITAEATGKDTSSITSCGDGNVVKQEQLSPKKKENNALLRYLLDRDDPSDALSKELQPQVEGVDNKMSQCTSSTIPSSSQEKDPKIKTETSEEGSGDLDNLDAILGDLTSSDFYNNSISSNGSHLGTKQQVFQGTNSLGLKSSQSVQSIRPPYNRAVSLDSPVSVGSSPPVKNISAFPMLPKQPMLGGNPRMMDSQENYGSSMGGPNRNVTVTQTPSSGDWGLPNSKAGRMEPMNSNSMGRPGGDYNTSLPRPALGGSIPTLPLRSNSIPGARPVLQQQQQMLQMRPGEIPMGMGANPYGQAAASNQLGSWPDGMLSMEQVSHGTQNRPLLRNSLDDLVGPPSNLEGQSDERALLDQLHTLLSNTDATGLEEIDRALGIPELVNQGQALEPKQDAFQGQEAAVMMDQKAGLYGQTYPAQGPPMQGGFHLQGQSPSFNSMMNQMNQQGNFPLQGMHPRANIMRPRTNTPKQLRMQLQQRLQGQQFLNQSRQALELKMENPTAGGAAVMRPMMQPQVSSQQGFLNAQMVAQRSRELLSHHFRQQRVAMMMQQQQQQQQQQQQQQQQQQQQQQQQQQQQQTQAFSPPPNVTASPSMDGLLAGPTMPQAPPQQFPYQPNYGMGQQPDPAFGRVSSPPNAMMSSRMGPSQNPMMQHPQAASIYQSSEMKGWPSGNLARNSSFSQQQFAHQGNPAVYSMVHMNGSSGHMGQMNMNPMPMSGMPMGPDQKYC
Sequence of Nonstructural protein 1 (Q194T2 whole entry): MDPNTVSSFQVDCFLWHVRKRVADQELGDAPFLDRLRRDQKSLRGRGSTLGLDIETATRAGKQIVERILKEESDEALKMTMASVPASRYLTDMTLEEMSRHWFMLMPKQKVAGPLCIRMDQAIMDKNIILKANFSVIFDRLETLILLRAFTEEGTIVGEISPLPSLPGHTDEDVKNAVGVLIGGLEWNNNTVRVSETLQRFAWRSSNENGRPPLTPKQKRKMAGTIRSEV

Regarding `CCc1ccc2nc(O)c(C3C(C#N)=C(N)Oc4c3ccc3cccnc43)cc2c1` (stereo not drawn), the AC50 is 6.07 µM (active) in test [1] and 1.46 µM (active) in [7]. The EC50 in test [2] is 16.1 µM (active); in test [5], > 150 µM (not active); in test [8], > 150 µM (not active). Further, the IC50 in test [3] is 11.3 µM (active); in [4], 12 µM (active); in test [6], 32.6 µM (active); in [9], 2.79 µM (not active).
Take `CCOCCCNCc1ccc(OC)c(OC)c1`: the EC50 in [10], in test [11] and in test [12] was > 79.4 µM (not active) in each case.
For the compound `COc1cccc(-c2nc(-c3ccccc3)c(-c3ccccc3)[nH]2)c1`, in test [13], the IC50 is on record as > 17 µM (not active).
Take `COc1ccc2c(c1)c(=O)oc1cc3oc(C)c(C)c3cc12`: the IC50 is 6.9 µM (active) in test [3], 12.6 µM (active) in test [4] and 0.205 µM (not active) in [9].
Consider `Cc1nn(-c2ccccc2)c(Cl)c1C(=O)N1CCN(c2ncnc3c2cnn3-c2ccccc2)CC1`, for which, in test [14], the AC50 is 5.24 µM (active). In addition, the EC50 in [15] was 9.4 µM (active); in [16], 5.06 µM (active); in [17] it was 8.56 µM (active).
Regarding `CC(=O)Nc1ccccc1OC(=O)c1sc2cc(Cl)ccc2c1Cl`, the IC50 in test [13] is on record as > 17 µM (not active).
For the compound `Cc1ccccc1-c1nnc(S)n1/N=C/c1c(C)nn(-c2ccccc2)c1C`, the IC50 was 8.4 µM (active) in [18], 12.3 µM (active) in [21] and 11.3 µM (active) in [22]. In test [19], the EC50 is > 53 µM (inactive). Besides, the cytotoxic concentration (CC50) in [20] was 29.1 µM (active).
For `CCn1c(SCC(=O)Nc2ccc(N(C)C)cc2)nnc1-c1cccc(C)c1`, in [23], the IC50 was 65.2 µM (active). The EC50 is 15.8 µM (active) in test [15], > 195 µM (not active) in [16] and > 20 µM (not active) in [17].
As to `COc1ccc(C(=O)NCC(=O)N=Nc2c(O)n(Cc3ccccc3)c3ccccc23)cc1OC`, the EC50 in test [10], in [11] and in [12] was > 79.4 µM (not active) in each case.

For orientation: AC50 means the midpoint of the concentration-response curve, whichever way the signal moves. The term CC50 denotes the concentration at which the toxic effect on the cells reaches its halfway point.
